# B1: full-length Arabidopsis thaliana PhyB assembled with PΦB (natural protein, UniProt P14713 1-1172, looked up)
# chain: MVSGVGGSGGGRGGGRGGEEEPSSSHTPNNRRGGEQAQSSGTKSLRPRSNTESMSKAIQQYTVDARLHAVFEQSGESGKSFDYSQSLKTTTYGSSVPEQQITAYLSRIQRGGYIQPFGCMIAVDESSFRIIGYSENAREMLGIMPQSVPTLEKPEILAMGTDVRSLFTSSSSILLERAFVAREITLLNPVWIHSKNTGKPFYAILHRIDVGVVIDLEPARTEDPALSIAGAVQSQKLAVRAISQLQALPGGDIKLLCDTVVESVRDLTGYDRVMVYKFHEDEHGEVVAESKRDDLEPYIGLHYPATDIPQASRFLFKQNRVRMIVDCNATPVLVVQDDRLTQSMCLVGSTLRAPHGCHSQYMANMGSIASLAMAVIINGNEDDGSNVASGRSSMRLWGLVVCHHTSSRCIPFPLRYACEFLMQAFGLQLNMELQLALQMSEKRVLRTQTLLCDMLLRDSPAGIVTQSPSIMDLVKCDGAAFLYHGKYYPLGVAPSEVQIKDVVEWLLANHADSTGLSTDSLGDAGYPGAAALGDAVCGMAVAYITKRDFLFWFRSHTAKEIKWGGAKHHPEDKDDGQRMHPRSSFQAFLEVVKSRSQPWETAEMDAIHSLQLILRDSFKESEAAMNSKVVDGVVQPCRDMAGEQGIDELGAVAREMVRLIETATVPIFAVDAGGCINGWNAKIAELTGLSVEEAMGKSLVSDLIYKENEATVNKLLSRALRGDEEKNVEVKLKTFSPELQGKAVFVVVNACSSKDYLNNIVGVCFVGQDVTSQKIVMDKFINIQGDYKAIVHSPNPLIPPIFAADENTCCLEWNMAMEKLTGWSRSEVIGKMIVGEVFGSCCMLKGPDALTKFMIVLHNAIGGQDTDKFPFPFFDRNGKFVQALLTANKRVSLEGKVIGAFCFLQIPSPELQQALAVQRRQDTECFTKAKELAYICQVIKNPLSGMRFANSLLEATDLNEDQKQLLETSVSCEKQISRIVGDMDLESIEDGSFVLKREEFFLGSVINAIVSQAMFLLRDRGLQLIRDIPEEIKSIEVFGDQIRIQQLLAEFLLSIIRYAPSQEWVEIHLSQLSKQMADGFAAIRTEFRMACPGEGLPPELVRDMFHSSRWTSPEGLGLSVCRKILKLMNGEVQYIRESERSYFLIILELPVPRKRPLSTASGSGDMMLMMPY
# modifications: phytochromobilin (PΦB) covalently bound to the cysteine of the GAF domain
# notes: Phytochrome B (PhyB), Arabidopsis thaliana, full-length 1172-residue polypeptide, from an intron-less PhyB gene designed for recombinant expression; Analysed as Pr; TEV cleavage of the printed tag probably leaves its last G at the N-terminus (surmised); also called FL PhyB; FL
# Experiments:
# [1] = biological target: T1, full-length (FL) PhyB (Arabidopsis thaliana, UniProt P14713); assay: assembly in E. coli, zinc-induced fluorescence after SDS-PAGE, UV-Vis absorption; assay type: binding; conditions: covalent; GAF domain cysteine; 25 °C, pH 7.9
# T1 construct: full length, 1172 residues; N-terminal 6His-TEV tag cut off; intron-less gene; E. coli BL21(DE3); homodimer, 320 kDa by SEC
# T1 sequence (P14713 1-1172): B1 chain
# [2] = biological target: T2, PhyB 1–450 fragment (Arabidopsis thaliana, UniProt P14713); assay: as above; assay type: binding; conditions: covalent; GAF domain cysteine; 25 °C, pH 7.9
# T2 construct: NTE-PAS-GAF, residues 1-450; N-terminal 6His-TEV tag cut off; E. coli BL21(DE3)
# T2 sequence (P14713 1-450): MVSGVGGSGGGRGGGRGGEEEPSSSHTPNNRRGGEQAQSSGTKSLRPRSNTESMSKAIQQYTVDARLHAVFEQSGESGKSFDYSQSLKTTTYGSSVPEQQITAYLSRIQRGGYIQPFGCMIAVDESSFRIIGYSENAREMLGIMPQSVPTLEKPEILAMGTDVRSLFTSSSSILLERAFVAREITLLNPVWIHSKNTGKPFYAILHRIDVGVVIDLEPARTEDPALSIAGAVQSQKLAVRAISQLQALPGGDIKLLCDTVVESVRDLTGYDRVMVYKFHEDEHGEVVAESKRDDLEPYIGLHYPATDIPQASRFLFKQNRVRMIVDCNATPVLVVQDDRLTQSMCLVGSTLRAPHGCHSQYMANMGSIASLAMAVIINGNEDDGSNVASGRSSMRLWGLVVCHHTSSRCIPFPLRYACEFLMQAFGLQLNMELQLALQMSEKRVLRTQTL
# [3] = biological target: T3, PhyB 100–624 (NTE truncation) (Arabidopsis thaliana, UniProt P14713); assay: as above; assay type: binding; conditions: covalent; GAF domain cysteine; 25 °C, pH 7.9
# T3 construct: PSM residues 100-624; N-terminal 6His-TEV tag cut off; E. coli BL21(DE3)
# [4] = biological target: T4, PhyB 90–624 (NTE truncation) (Arabidopsis thaliana, UniProt P14713); assay: as above; assay type: binding; conditions: covalent; GAF domain cysteine; 25 °C, pH 7.9
# T4 construct: PSM residues 90-624; N-terminal 6His-TEV tag cut off; E. coli BL21(DE3); 4OUR is an earlier structure of this fragment
# [5] = biological target: T5, PhyB 1–624 fragment (PSM) (Arabidopsis thaliana, UniProt P14713); assay: as above; assay type: binding; conditions: covalent; GAF domain cysteine; 25 °C, pH 7.9
# T5 construct: photosensory module (NTE-PAS-GAF-PHY), residues 1-624; N-terminal 6His-TEV tag cut off; E. coli BL21(DE3)
# T5 sequence (P14713 1-624): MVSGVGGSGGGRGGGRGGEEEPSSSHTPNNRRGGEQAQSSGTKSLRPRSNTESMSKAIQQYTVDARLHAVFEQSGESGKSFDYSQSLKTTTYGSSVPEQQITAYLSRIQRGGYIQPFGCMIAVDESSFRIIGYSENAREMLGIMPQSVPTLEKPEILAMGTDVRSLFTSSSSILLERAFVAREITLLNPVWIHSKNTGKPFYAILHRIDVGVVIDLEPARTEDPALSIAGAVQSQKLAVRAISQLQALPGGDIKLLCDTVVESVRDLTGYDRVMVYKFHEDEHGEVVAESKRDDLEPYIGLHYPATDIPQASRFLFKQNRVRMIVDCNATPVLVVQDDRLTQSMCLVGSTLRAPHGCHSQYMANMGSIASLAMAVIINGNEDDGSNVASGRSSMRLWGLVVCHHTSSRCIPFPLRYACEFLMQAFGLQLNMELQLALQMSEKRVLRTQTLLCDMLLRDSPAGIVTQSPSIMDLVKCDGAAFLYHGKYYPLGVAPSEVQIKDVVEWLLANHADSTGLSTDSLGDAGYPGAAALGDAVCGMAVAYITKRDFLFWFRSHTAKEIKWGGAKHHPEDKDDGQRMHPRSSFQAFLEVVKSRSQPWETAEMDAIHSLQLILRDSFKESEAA
# [6] = biological target: T6, PhyB 51–624 (NTE truncation) (Arabidopsis thaliana, UniProt P14713); assay: as above; assay type: binding; conditions: covalent; GAF domain cysteine; 25 °C, pH 7.9
# T6 construct: PSM residues 51-624; N-terminal 6His-TEV tag cut off; E. coli BL21(DE3)
# [7] = biological target: T7, PhyB 1–908 fragment (Arabidopsis thaliana, UniProt P14713); assay: as above; assay type: binding; conditions: covalent; GAF domain cysteine; 25 °C, pH 7.9
# T7 construct: residues 1-908 (HKRD removed); N-terminal 6His-TEV tag cut off; E. coli BL21(DE3)
# T7 sequence (P14713 1-908): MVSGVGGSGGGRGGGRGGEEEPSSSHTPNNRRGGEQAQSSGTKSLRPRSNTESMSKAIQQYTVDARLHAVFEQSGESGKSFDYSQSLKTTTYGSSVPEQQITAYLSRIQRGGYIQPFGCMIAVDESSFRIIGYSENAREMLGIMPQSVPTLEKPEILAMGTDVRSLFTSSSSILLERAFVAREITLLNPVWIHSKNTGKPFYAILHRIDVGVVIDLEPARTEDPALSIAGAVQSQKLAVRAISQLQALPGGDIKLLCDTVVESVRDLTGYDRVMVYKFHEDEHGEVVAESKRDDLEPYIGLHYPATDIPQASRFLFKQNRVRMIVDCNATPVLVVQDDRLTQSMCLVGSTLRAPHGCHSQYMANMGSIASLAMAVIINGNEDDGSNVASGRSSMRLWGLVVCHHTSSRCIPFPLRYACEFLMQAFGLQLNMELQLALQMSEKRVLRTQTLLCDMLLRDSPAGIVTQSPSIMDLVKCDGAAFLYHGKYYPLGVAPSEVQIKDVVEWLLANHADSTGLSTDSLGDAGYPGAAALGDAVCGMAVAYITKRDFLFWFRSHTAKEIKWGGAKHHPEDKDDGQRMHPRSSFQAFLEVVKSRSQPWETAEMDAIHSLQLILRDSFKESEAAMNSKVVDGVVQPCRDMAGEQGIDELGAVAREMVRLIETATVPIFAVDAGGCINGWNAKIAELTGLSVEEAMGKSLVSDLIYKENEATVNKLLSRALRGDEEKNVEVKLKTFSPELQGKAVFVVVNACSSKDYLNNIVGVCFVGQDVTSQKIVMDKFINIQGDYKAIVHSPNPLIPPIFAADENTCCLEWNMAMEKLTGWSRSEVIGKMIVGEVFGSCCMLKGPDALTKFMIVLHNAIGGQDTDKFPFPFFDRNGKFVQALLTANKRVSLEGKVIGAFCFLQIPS
# [8] = biological target: the molecule itself; assay: SEC; Superdex 200 HR 10/30, 10 °C, 150 mM KCl, 50 mM HEPES-NaOH pH 7.8, 0.3 mM TCEP; samples as Pr at 0.6 mg/ml; apparent mass from size standards; monomer to dimer
Molecule,"assembly in E. coli, zinc-induced fluorescence after SDS-PAGE, UV-Vis absorption [1]","assembly in E. coli, zinc-induced fluorescence after SDS-PAGE, UV-Vis absorption [2]","assembly in E. coli, zinc-induced fluorescence after SDS-PAGE, UV-Vis absorption [3]","assembly in E. coli, zinc-induced fluorescence after SDS-PAGE, UV-Vis absorption [4]","assembly in E. coli, zinc-induced fluorescence after SDS-PAGE, UV-Vis absorption [5]","assembly in E. coli, zinc-induced fluorescence after SDS-PAGE, UV-Vis absorption [6]","assembly in E. coli, zinc-induced fluorescence after SDS-PAGE, UV-Vis absorption [7]",stoichiometry N [8]
C/C=C1/C(=C/c2[nH]c(/C=C3N=C(/C=C4\NC(=O)C(CC)=C4C)C(C)=C\3CCC(=O)O)c(CCC(=O)O)c2C)NC(=O)[C@@H]1C [PCB],recombinant PhyB assembled with PCB with efficiencies equal to that seen for PΦB,the fragment assembled with PCB generated as least some of a ‘Pfr’-like state,–,–,–,–,–,–
C=CC1=C(C)/C(=C/C2=NC(=C\c3[nH]c(/C=C4\NC(=O)[C@H](C)\C4=C/C)c(C)c3CCC(=O)O)/C(CCC(=O)O)=C2C)NC1=O [PΦB],purified chromoproteins were readily obtained with high bilin occupancy and near normal Pr absorption,The truncations were expressed and assembled with PΦB in Escherichia coli,"all of the truncations expressed well, efficiently assembled with PΦB, and displayed normal Pr absorption","all of the truncations expressed well, efficiently assembled with PΦB, and displayed normal Pr absorption",The truncations were expressed and assembled with PΦB in Escherichia coli,"all of the truncations expressed well, efficiently assembled with PΦB, and displayed normal Pr absorption",The truncations were expressed and assembled with PΦB in Escherichia coli,–
B1,–,–,–,–,–,–,–,2

# From publication PMC5651913, “Photosensing and Thermosensing by Phytochrome B Require Both Proximal and Distal Allosteric Features within the Dimeric Photoreceptor” (Scientific Reports, 2017)
